Reference: patent publication US20240150377A1, “MODULATORS OF CYSTIC FIBROSIS TRANSMEMBRANE CONDUCTANCE REGULATOR” (VERTEX PHARMACEUTICALS INCORPORATED, priority 2020, published 2024)
Where two headings read alike, the source gives them in different places. Each block holds one molecule with its values, some of them ahead of it.

Target: T1, CFTR (Homo sapiens, UniProt P13569, DEL508-508)
T1 construct: endogenous in cells; host or cells: primary human bronchial epithelial cells from CF subjects (F508del/MF-HBE), differentiated at air-liquid interface
T1 sequence (P13569 with tags, fused parts or gaps DEL508-508): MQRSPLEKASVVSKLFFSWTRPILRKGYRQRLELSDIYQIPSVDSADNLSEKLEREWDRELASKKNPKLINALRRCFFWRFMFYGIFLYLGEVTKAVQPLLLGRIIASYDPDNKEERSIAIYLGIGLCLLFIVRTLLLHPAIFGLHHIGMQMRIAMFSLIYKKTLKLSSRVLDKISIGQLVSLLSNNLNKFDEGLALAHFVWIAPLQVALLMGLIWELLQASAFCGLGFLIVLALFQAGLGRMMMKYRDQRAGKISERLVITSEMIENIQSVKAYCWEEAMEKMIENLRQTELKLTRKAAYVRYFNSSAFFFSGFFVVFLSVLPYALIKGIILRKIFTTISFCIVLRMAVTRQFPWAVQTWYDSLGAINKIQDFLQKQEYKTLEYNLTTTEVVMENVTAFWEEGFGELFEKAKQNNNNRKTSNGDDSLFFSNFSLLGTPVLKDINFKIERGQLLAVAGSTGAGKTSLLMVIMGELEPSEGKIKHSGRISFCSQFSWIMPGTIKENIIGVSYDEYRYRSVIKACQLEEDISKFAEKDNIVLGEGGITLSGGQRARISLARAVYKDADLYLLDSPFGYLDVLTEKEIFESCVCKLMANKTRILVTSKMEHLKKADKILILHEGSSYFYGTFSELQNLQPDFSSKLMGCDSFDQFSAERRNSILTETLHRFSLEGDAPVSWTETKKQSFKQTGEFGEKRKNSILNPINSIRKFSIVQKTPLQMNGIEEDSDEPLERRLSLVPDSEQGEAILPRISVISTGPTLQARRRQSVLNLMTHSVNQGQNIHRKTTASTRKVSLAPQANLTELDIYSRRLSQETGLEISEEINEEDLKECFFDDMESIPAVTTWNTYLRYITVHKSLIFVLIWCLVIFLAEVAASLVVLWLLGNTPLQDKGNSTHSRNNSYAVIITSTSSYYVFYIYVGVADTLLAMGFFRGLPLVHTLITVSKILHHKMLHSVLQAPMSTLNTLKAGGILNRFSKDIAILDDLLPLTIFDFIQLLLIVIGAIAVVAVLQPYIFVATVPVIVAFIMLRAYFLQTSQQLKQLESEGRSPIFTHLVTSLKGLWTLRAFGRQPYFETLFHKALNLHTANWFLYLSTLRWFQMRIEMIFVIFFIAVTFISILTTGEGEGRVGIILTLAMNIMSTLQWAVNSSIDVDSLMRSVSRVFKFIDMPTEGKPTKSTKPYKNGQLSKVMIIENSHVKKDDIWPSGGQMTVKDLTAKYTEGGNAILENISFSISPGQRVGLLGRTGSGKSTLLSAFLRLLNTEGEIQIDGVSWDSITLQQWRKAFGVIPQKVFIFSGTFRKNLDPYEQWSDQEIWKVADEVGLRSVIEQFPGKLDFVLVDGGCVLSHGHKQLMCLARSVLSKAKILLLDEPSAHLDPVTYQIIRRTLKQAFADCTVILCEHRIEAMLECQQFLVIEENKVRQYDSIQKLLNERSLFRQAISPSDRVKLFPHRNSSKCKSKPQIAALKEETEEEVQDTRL
Assay: HBE assay: Ussing chamber assay of CFTR-mediated short-circuit currents
Assay type: cell-based
Conditions: for EC50: read-out: HBE EC50
Summary of the method: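 CFTR-mediated Isc (μA/cm²) equals the peak response to apical 20 μM forskolin minus the residual after a 20 μM each BPO/GlyH-101/CFTR inhibitor 172 cocktail, recorded in Ussing chambers at Vhold 0 mV, 37 °C, pH 7.4, with 30 μM apical amiloride. Cells were F508del/MF HBE cultures preincubated 18-24 h with corrector (concentration range or 10 μM) plus 1 μM ivacaftor in 20% human serum.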

[1] = HBE assay, read-out: HBE Max activity (%)
[2] = Table 11, read-out: HBE Max Activity (%)
[3] = Table 12, read-out: HBE Max Activity (%)
[4] = Table 10, read-out: HBE activity at 10 (μM) (%)
[5] = Table 10, read-out: HBE Max activity (%)

EC50 (HBE assay): < 1000 nM
Emax [1]: > 60%
SMILES: Cc1cccc(C)c1-c1cc2nc(n1)NS(=O)(=O)c1cccc(c1)C(=O)N(Cc1cncc(N3CCC[C@H]3COC(C)C)n1)[C@H](CC(C)(C)C)CO2 [Compound 1494]

EC50 (Table 11): < 1000 nM
Emax [2]: > 60%
SMILES: Cc1cccc(C)c1-c1cc2nc(n1)NS(=O)(=O)c1cccc(c1)C(=O)N(Cc1cccc(C3CCOCC3)n1)[C@H](CC(C)(C)C)CO2 [Compound 728]

EC50 (Table 12): < 1000 nM
Emax [3]: > 60%
SMILES: Cc1cccc(C)c1-c1cc2nc(n1)NS(=O)(=O)c1cccc(c1)C(=O)N(Cc1cccc(N3CCCC34CCC4)n1)[C@H](CC(C)(C)C)CO2 [Compound 562]

activation at 10 µM [4]: > 60%
Emax [5]: > 60%
SMILES: Cc1cccc(C)c1-c1cc2nc(n1)NS(=O)(=O)c1cccc(c1)C(=O)N(Cc1ccnc(N3CCOCC3)c1)[C@H](CC(C)(C)C)CO2 [Compound 466]

EC50 (Table 12): < 1000 nM
Emax [3]: > 60%
SMILES: Cc1cccc(C)c1-c1cc2nc(n1)NS(=O)(=O)c1cccc(c1)C(=O)N(Cc1ccc(C3CC(C)(C)CO3)cn1)[C@H](CC(C)(C)C)CO2 (stereo partly drawn) [Compound 156, (11R)-6-(2,6-Dimethylphenyl)-11-(2,2-dimethylpropyl)-12-[[5-(4,4-dimethyltetrahydrofuran-2-yl)-2-pyridyl]methyl]-2,2-dioxo-9-oxa-2λ6-thia-3,5,12,19-tetrazatricyclo[12.3.1.14,8]nonadeca-1(18),4(19),5,7,14,16-hexaen-13-one]

activation at 10 µM (Table 13, read-out: HBE Activity at 10 μM (%)): > 600%
SMILES: Cc1cccc(C)c1-c1cc2nc(n1)NS(=O)(=O)c1cccc(c1)C(=O)N(Cc1ccc(C3COC(C)(C)C3)cn1)[C@H](CC(C)(C)C)CO2 (stereo partly shown) [Compound 1062]

EC50 (HBE assay): < 1000 nM
Emax [1]: > 60%
SMILES: Cc1cccc(C)c1-c1cc2nc(n1)NS(=O)(=O)c1cccc(c1)C(=O)N(Cc1ncc(N3CC[C@](C)(F)C3)cn1)[C@H](CC(C)(C)C)CO2 [Compound 1440]

activation at 10 µM [4]: > 60%
SMILES: Cc1cccc(C)c1-c1cc2nc(n1)NS(=O)(=O)c1cccc(c1)C(=O)N(Cc1cnn(C)c1)[C@H](CC(C)(C)C)CO2 [Compound 826]

EC50 (Table 11): < 1000 nM
Emax [2]: > 60%
SMILES: Cc1cccc(C)c1-c1cc2nc(n1)NS(=O)(=O)c1cccc(c1)C(=O)N(Cc1nccc(N(C)C3CCC3)n1)[C@H](CC(C)(C)C)CO2 [Compound 627]

activation at 10 µM [4]: > 60%
SMILES: Cc1cccc(C)c1-c1cc2nc(n1)NS(=O)(=O)c1cccc(c1)C(=O)N(Cc1c(C)n[nH]c1C)[C@H](CC(C)(C)C)CO2 [Compound 485]

EC50 (Table 12): < 1000 nM
Emax [3]: > 60%
SMILES: Cc1cccc(C)c1-c1cc2nc(n1)NS(=O)(=O)c1cccc(c1)C(=O)N(Cc1cccc(N3CCC[C@@H]3CO)n1)[C@H](CC(C)(C)C)CO2 [Compound 280]

activation at 10 µM (Table 12, read-out: HBE Activity at 10 μM (%)): > 600%
SMILES: Cc1cccc(C)c1-c1cc2nc(n1)NS(=O)(=O)c1cccc(c1)C(=O)N(Cc1ncc(N3CCC(C)(O)C3)cn1)[C@H](CC(C)(C)C)CO2 (stereo partly shown) [Compound 553]

EC50 (Table 12): 1000 to 3000 nM
Emax [3]: > 60%
SMILES: Cc1cccc(C)c1-c1cc2nc(n1)NS(=O)(=O)c1cccc(c1)C(=O)N(Cc1cccc(N3CCCC3(C)C)n1)[C@H](CC(C)(C)C)CO2 [Compound 592]

Emax [5]: > 60%
SMILES: Cc1cccc(C)c1-c1cc2nc(n1)NS(=O)(=O)c1cccc(c1)C(=O)N(Cc1ccc(NCC(C)(C)C)cn1)[C@H](CC(C)(C)C)CO2 [Compound 477]

EC50 (Table 11): < 1000 nM
Emax [2]: > 60%
SMILES: Cc1cccc(C)c1-c1cc2nc(n1)NS(=O)(=O)c1cccc(c1)C(=O)N(CC1CN(C(=O)C(C)(C)C)CCO1)[C@H](CC(C)(C)C)CO2 (stereo partly shown) [Compound 714]

EC50 (Table 10): < 1000 nM
Emax [5]: > 60%
SMILES: Cc1cccc(C)c1-c1cc2nc(n1)NS(=O)(=O)c1cccc(c1)C(=O)N(Cc1ccc(N(C)C)nc1)[C@H](CC(C)(C)C)CO2 [Compound 529]

EC50 (Table 12): < 1000 nM
Emax [3]: > 60%
SMILES: COC1(C)CCN(c2cnc(CN3C(=O)c4cccc(c4)S(=O)(=O)Nc4nc(cc(-c5c(C)cccc5C)n4)OC[C@H]3CC(C)(C)C)nc2)C1 (stereo partly shown) [Compound 543]

EC50 (Table 12): < 1000 nM
Emax [3]: > 60%
SMILES: Cc1cccc(C)c1-c1cc2nc(n1)NS(=O)(=O)c1cccc(c1)C(=O)N(C[C@H]1C[C@@H](NC(=O)OC(C)C)C1)[C@H](CC(C)(C)C)CO2 [Compound 1005]
